Source: PMC5614603, “Structural insights into substrate selectivity of ribosomal RNA methyltransferase RlmCD” (PLoS ONE, 2017)

Key:
RlmCDs = molecular target: T1, RlmCDs (Streptococcus pneumoniae, UniProt Q97R12); assay: in-vitro methyltransferase assay, 3H counting on RNA; format: biochemical; conditions: labelled compound (3H-SAM); 18-mer rRNA-h35, 3 mM MgCl2, pH 8.0, 37 °C, 2 h
T1 construct: gene SP_1029; core region residues 1-454; 8xHis-SUMO tag cut by ULP1; E. coli BL21 (Gold)

RlmCDs E443Q = RlmCDs E443Q (Streptococcus pneumoniae, UniProt Q97R12 1-454, E443Q); assay: crystal structure (2.85 A); SAH (SAM added); only the 5-bp stem modelled, loop not visible; Crystallization: 8 mg/ml protein, protein:SAM:RNA 1:2:1.2, 0.1 M ammonium sulfate, 0.01 M MgCl2, 0.05 M MES, 20% w/v PEG8000, pH 5.6; protein storage buffer 20; conditions: protein: recombinant; tags: N-terminal 8xHis-SUMO, cleaved with ULP1; hairpin

Molecule | in-vitro methyltransferase assay, 3H counting on RNA (RlmCDs) | binding result (RlmCDs E443Q)
C[S+](CC[C@H](N)C(=O)O)C[C@H]1O[C@@H](n2cnc3c(N)ncnc32)[C@H](O)[C@@H]1O (some centres unmarked) [SAM] | both full-length RlmCD and its shorter construct RlmCDs exhibit strong MTase activity | –
GGCACGUUGAAAAGUGCC (structured_RNA, m5U at position 8 (U747)) [m5U747 rRNA-h35 (18-mer, 23S rRNA helix 35)] | – | binds
